Reference: patent publication US20190185829A1, “Preparation of lipase with improved ester synthesis activity by using surfactants” (Jiangnan University, priority 2017, published 2019)

Columns and labels:
Format in all cases: biochemical
[1] = molecular target: T1, Rhizoupus oryzae lipase ROL (Rhizopus oryzae, UniProt P61872); experiment: Hydrolytic activity of surfactant-treated lipase ROL using pNPP as substrate; conditions: protein 0.2 mg·mL^−1
T1 construct: purchased Sigma-Aldrich Co., Ltd
Description: (§1) (1) Determination of Hydrolytic Activity of the Lipase Using p-Nitrophenyl Palmitate (pNPP) as Substrate
(§2) Hydrolysis of pNPP catalyzed by lipase generates p-nitrophenol and palmitic acid. p-nitrophenol appears yellow in the buffer at pH 8.0 with the maximum absorption peak at 410 nm. Determination of hydrolytic activity can be achieved by measuring the absorbance at 410 nm.
(§3) The substrate solution A: 50 mmol·L^−1 sodium phosphate buffer (pH 8.0) containing 1.16 g·L^−1 sodium deoxycholate and 0.56 g·L^−1 arabic gum. Substrate solution B: 0.015 g pNPP is dissolved in 5 mL isopropyl alcohol. Substrate solution A and substrate solution B are mixed then stored for use afterwards.
(§4) Termination solution: 40 g·L^−1 NaOH, 93.05 g·L^−1 EDTA sodium. Add 62 uL termination solution to the reaction mixture when stopping the reaction.
(§5) Add 0.1 mL appropriately diluted enzyme solution, which is substituted by inactivated enzyme solution as the control, to 2.4 mL substrate solution above, incubate the mixture at 40° C. for 2 min and measure the absorbance at 410 nm.
(§6) one hydrolytic activity unit is defined as the amount of enzyme that catalyzes the formation of 1 μmol of p-nitrophenol in 1 minute at 40° C.
(§7) enzyme activity (U·mL^−1)=(V×A410×10^6)/(ε×t×V′) Calculation equation: […]
(§8) Specific activity: the activity of lipase per milligram of total protein in the lipase preparation. […]
(§9) Commercial lipase ROL was purchased from Sigma-Aldrich Co., Ltd. ROL is a non-immobilized lipase. Dissolve the ROL powder in water and centrifuge to obtain the supernatant containing the ROL lipase that would be regulated to improve its ester synthesis activity by adjusting the final protein concentration to 0.2 mg·mL^−1 and adding surfactants to the final concentration of 10 mM.
(§10) Commercial lipase ROL was purchased from Sigma-Aldrich Co., Ltd. and is a non-immobilized lipase. Dissolve the ROL powder in water, centrifuge to obtain the supernatant and treat the supernatant with different concentrations of surfactant LPC14 (the final protein concentration was 0.2 mg·mL^−1).

[2] = molecular target: T1, Rhizoupus oryzae lipase ROL; experiment: Ester synthesis activity of surfactant-treated lyophilized lipase ROL by GC analysis; conditions: protein 0.2 mg·mL^−1
Procedure: (§11) (2) Determination of Ester Synthesis Activity of the Lipase by GC Analysis
(§12) Substrate solution A: 48.5 mL of n-octanoic acid is dissolved in 250 mL of n-heptane in a volumetric flask.
(§13) Substrate solution B: 17.5 mL of absolute ethanol is dissolved in 250 mL of n-heptane in a volumetric flask.
(§14) Internal standard: 2-hexanol/n-heptane (35 g·L^−1).
(§15) Standard sample: 10 g of n-octanoate is dissolved in 1000 mL of n-heptane in a volumetric flask.
(§16) 1 mL substrate solution A and substrate solution B are added in a 5 mL Eppendorf tube respectively, then 20 mg lipase powder (or lyophilized powder) is added. The reaction is carried out at 40° C. and with shaking at 150 rpm for 30 min. Remove the lipase powder by centrifugation or membrane filtration. Then 0.1 mL of internal standard is added in 0.4 mL of filtrate or supernatant and mixed. Measure the content of n-octanoate in the mixture above by GC analysis.
(§17) The gas chromatograph (6820, Agilent Instruments) is equipped with a AC20 (PEG20000) capillary column and a FID detector. Nitrogen was used as the carrier gas. The oven temperature was programmed to start at 90° C. for 1 min and then be elevated to 200° C. for 5 min at 10° C.·min^−1. The injector and detector temperatures were set at 250° C.
(§18) Definition of enzyme activity: One unit of ester synthesis activity is defined as the amount of enzyme that esterifies 1 micromole of n-octanoate per min.
(§19) Specific activity: the activity of lipase per milligram of total protein in the lipase preparation.
(§20) Total recovery: the percentage of the activity after a treatment to that before the treatment
(§21) Add an equal volume of high-concentration surfactant solution into the enzyme solution. The final protein concentration was […] and the surfactant concentration was 10 mM. After mixed thoroughly, the mixture was lyophilized and kept in dry condition.
as §9, §10

[3] = molecular target: T2, Candida antarctica lipase CALB (Moesziomyces antarcticus, UniProt P41365); experiment: Hydrolytic activity of surfactant-treated lipase CALB using pNPP as substrate; conditions: surfactant 10 mM, protein 0.12 mg·mL^−1
T2 construct: purchased Sigma-Aldrich Co., Ltd
T2 sequence (P41365 26-342): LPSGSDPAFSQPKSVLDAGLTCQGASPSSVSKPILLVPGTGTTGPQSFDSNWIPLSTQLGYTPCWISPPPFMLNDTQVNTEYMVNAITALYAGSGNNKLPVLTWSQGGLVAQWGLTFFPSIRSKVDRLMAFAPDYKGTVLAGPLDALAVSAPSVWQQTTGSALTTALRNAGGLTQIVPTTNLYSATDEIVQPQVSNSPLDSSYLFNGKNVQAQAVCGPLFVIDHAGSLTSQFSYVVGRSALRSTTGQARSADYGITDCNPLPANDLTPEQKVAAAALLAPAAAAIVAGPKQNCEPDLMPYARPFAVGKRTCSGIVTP
Description: as §1, §2, §3, §4, §5, §6, §7, §8
as §9, with “CALB” for “ROL”, “the” for “its”, “0.12” for “0.2”
(§22) Commercial lipase CALB was purchased from Sigma-Aldrich Co., Ltd. and is a non-immobilized lipase. Dissolve the CALB powder in water, centrifuge to obtain the supernatant and treat the supernatant with different concentrations of surfactant DDM (the final protein concentration was 0.12 mg·mL^−1).

[4] = tested on: Rhizopus chinensis lipase r27RCL; experiment: Hydrolytic activity of surfactant-treated lipase r27RCL using pNPP as substrate; conditions: protein 0.2 mg·mL^−1
Description: as §1, §2, §3, §4, §5, §6, §7, §8
(§23) Commercial lipase r27RCL was purchased from Jiangsu Yiming Biological Technology Co., Ltd, which has high hydrolytic activity and low ester synthesis activity. Dissolve the r27RCL powder in water and centrifuge to obtain the supernatant containing the r27RCL lipase to adjust the ester synthesis activity (the final protein concentration was 0.2 mg·mL^−1 and the final concentration of surfactant was 10 mM, which is between 0.1×CMC^˜200×CMC of the different surfactants in Table 1).
(§24) Commercial lipase r27RCL was purchased from Jiangsu Yiming Biological Technology Co., Ltd. r27RCL is a lipase with high hydrolytic activity but low ester synthesis activity. Dissolve the r27RCL powder in water, centrifuge to obtain the supernatant and treat the supernatant with different concentrations of surfactant LPC14 (the final protein concentration was 0.2 mg·mL^−1).

[5] = molecular target: T3, Pseudomonas cepacia lipase PCL (Burkholderia cepacia, UniProt P22088); experiment: Hydrolytic activity of surfactant-treated lipase PCL using pNPP as substrate; conditions: surfactant 10 mM, protein 0.2 mg·mL^−1
T3 construct: purchased Sigma-Aldrich Co., Ltd
T3 sequence (P22088 45-364): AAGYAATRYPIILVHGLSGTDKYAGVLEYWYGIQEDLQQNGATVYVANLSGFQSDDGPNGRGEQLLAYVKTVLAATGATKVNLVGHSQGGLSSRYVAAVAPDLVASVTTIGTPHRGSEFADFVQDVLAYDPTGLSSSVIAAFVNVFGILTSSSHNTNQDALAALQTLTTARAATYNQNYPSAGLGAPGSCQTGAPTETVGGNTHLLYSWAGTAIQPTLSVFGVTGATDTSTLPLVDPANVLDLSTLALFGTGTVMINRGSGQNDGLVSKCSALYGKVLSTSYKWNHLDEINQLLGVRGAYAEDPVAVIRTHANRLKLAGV
Description: as §1, §2, §3, §4, §5, §6, §7, §8
as §9, with “PCL” for “ROL”, “the” for “its”
(§25) Commercial lipase PCL was purchased from Sigma-Aldrich Co., Ltd. and is a non-immobilized lipase. Dissolve the PCL powder in water, centrifuge to obtain the supernatant and treat the supernatant with different concentrations of surfactant DDM (the final protein concentration was 0.2 mg·mL^−1).

[6] = molecular target: T3, Pseudomonas cepacia lipase PCL; experiment: Ester synthesis activity of surfactant-treated lyophilized lipase PCL by GC analysis; conditions: surfactant 10 mM, protein 0.2 mg·mL^−1
Procedure: as §11, §12, §13, §14, §15, §16, §17, §18, §19, §20, §21
as §9, with “PCL” for “ROL”, “the” for “its”
as §25

[7] = molecular target: T2, Candida antarctica lipase CALB; experiment: Ester synthesis activity of surfactant-treated lyophilized lipase CALB by GC analysis; conditions: surfactant 10 mM, protein 0.12 mg·mL^−1
Procedure: as §11, §12, §13, §14, §15, §16, §17, §18, §19, §20, §21
as §9, with “CALB” for “ROL”, “the” for “its”, “0.12” for “0.2”
as §22

[8] = tested on: Rhizopus chinensis lipase r27RCL; experiment: Ester synthesis activity of surfactant-treated lyophilized lipase r27RCL by GC analysis; conditions: protein 0.2 mg·mL^−1
Procedure: as §11, §12, §13, §14, §15, §16, §17, §18, §19, §20, §21, §23, §24

[9] = surfactant concentration 0.1 x CMC
[10] = surfactant concentration 1 x CMC
[11] = surfactant concentration 10 x CMC
[12] = surfactant concentration 100 x CMC

T1 sequence (P61872 96-392): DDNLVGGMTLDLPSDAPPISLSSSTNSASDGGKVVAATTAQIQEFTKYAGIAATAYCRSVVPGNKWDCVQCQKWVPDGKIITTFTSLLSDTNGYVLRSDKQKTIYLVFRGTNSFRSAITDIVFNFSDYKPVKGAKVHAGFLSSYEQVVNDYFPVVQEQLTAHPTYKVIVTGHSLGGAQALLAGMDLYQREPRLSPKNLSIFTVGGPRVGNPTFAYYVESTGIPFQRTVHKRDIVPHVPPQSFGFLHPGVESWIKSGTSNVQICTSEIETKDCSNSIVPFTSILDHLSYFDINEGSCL

Compound: CCCCCC(=O)OC[C@H](COP(=O)([O-])OCC[N+](C)(C)C)OC(=O)CCCCC [DiC6PC, 1,2-dihexanoyl lecithin]
- Hydrolytic activity, Specific activity ([1]; surfactant 10 mM): 15.2 U · mg^−1
- Hydrolytic activity, Total recovery ([1]; surfactant 10 mM): 76%
- Ester synthesis activity, Specific activity ([2]; surfactant 10 mM): 3.11 U · mg^−1
- Hydrolytic activity, Specific activity [3]: 0.98 U · mg^−1
- Hydrolytic activity, Total recovery [3]: 85%
- Hydrolytic activity, Specific activity ([4]; surfactant 10 mM): 104.2 U · mg^−1
- Hydrolytic activity, Total recovery ([4]; surfactant 10 mM): 87%
- Hydrolytic activity, Specific activity [5]: 308.2 U · mg^−1
- Hydrolytic activity, Total recovery [5]: 140%
- Ester synthesis activity, Specific activity [6]: 7.1 U · mg^−1
- Ester synthesis activity, Total recovery [6]: 260%
- Ester synthesis activity, Specific activity [7]: 31.9 U · mg^−1
- Ester synthesis activity, Specific activity ([8]; surfactant 10 mM): 15.9 U · mg^−1
- Ester synthesis activity, Total recovery ([8]; surfactant 10 mM): 256%

Compound: CCCCCCCCCCCCCC(=O)OCC(O)COP(=O)([O-])OCC[N+](C)(C)C (stereo not drawn) [LPC14, 1-myristyl 2-acyl-cis-propyltri-phosphatidylcholine]
- Hydrolytic activity, Specific activity ([1]; surfactant 10 mM): 33.1 U · mg^−1
- Hydrolytic activity, Total recovery ([1]; surfactant 10 mM): 106%
- Hydrolytic activity, Specific activity [1, 9]: 28.7 U · mg^−1
- Hydrolytic activity, Total recovery [1, 9]: 150%
- Hydrolytic activity, Specific activity [1, 10]: 27.7 U · mg^−1
- Hydrolytic activity, Total recovery [1, 10]: 139%
- Hydrolytic activity, Specific activity [1, 11]: 31.2 U · mg^−1
- Hydrolytic activity, Total recovery [1, 11]: 162%
- Hydrolytic activity, Specific activity [1, 12]: 39.0 U · mg^−1
- Hydrolytic activity, Total recovery [1, 12]: 206%
- Ester synthesis activity, Specific activity ([2]; surfactant 10 mM): 12.2 U · mg^−1
- Ester synthesis activity, Specific activity [2, 9]: 0.4 U · mg^−1
- Ester synthesis activity, Total recovery [2, 9]: 97%
- Ester synthesis activity, Specific activity [2, 10]: 0.2 U · mg^−1
- Ester synthesis activity, Total recovery [2, 10]: 46%
- Ester synthesis activity, Specific activity [2, 11]: 1.0 U · mg^−1
- Ester synthesis activity, Total recovery [2, 11]: 240%
- Ester synthesis activity, Specific activity [2, 12]: 6.2 U · mg^−1
- Hydrolytic activity, Specific activity [3]: 0.54 U · mg^−1
- Hydrolytic activity, Total recovery [3]: 38%
- Hydrolytic activity, Total recovery ([4]; surfactant 10 mM): 97%
- Hydrolytic activity, Specific activity [4, 9]: 120.2 U · mg^−1
- Hydrolytic activity, Total recovery [4, 9]: 101%
- Hydrolytic activity, Specific activity [4, 10]: 122.2 U · mg^−1
- Hydrolytic activity, Total recovery [4, 10]: 102%
- Hydrolytic activity, Specific activity [4, 11]: 128.0 U · mg^−1
- Hydrolytic activity, Total recovery [4, 11]: 107%
- Hydrolytic activity, Specific activity [4, 12]: 125.7 U · mg^−1
- Hydrolytic activity, Total recovery [4, 12]: 102%
- Hydrolytic activity, Specific activity [5]: 321.8 U · mg^−1
- Hydrolytic activity, Total recovery [5]: 119%
- Ester synthesis activity, Specific activity [6]: 44.6 U · mg^−1
- Ester synthesis activity, Specific activity [7]: 36.8 U · mg^−1
- Ester synthesis activity, Specific activity ([8]; surfactant 10 mM): 47.6 U · mg^−1
- Ester synthesis activity, Specific activity [8, 9]: 1.8 U · mg^−1
- Ester synthesis activity, Total recovery [8, 9]: 32%
- Ester synthesis activity, Specific activity [8, 10]: 1.4 U · mg^−1
- Ester synthesis activity, Total recovery [8, 10]: 25%
- Ester synthesis activity, Specific activity [8, 12]: 17.1 U · mg^−1
- Ester synthesis activity, Total recovery [8, 12]: 292%

Compound: polyethylene glycol octylphenyl Ether [Triton X-100]
- Hydrolytic activity, Specific activity ([1]; surfactant 10 mM): 34.9 U · mg^−1
- Hydrolytic activity, Total recovery ([1]; surfactant 10 mM): 99%
- Ester synthesis activity, Specific activity ([2]; surfactant 10 mM): 1.7 U · mg^−1
- Ester synthesis activity, Total recovery ([2]; surfactant 10 mM): 200%
- Hydrolytic activity, Specific activity [3]: 0 U · mg^−1
- Hydrolytic activity, Total recovery [3]: 0%
- Hydrolytic activity, Specific activity ([4]; surfactant 10 mM): 116.6 U · mg^−1
- Hydrolytic activity, Total recovery ([4]; surfactant 10 mM): 93%
- Hydrolytic activity, Specific activity [5]: 364.5 U · mg^−1
- Hydrolytic activity, Total recovery [5]: 131%
- Ester synthesis activity, Specific activity [6]: 6.3 U · mg^−1
- Ester synthesis activity, Total recovery [6]: 174%
- Ester synthesis activity, Specific activity [7]: 77.4 U · mg^−1
- Ester synthesis activity, Specific activity ([8]; surfactant 10 mM): 12.9 U · mg^−1
- Ester synthesis activity, Total recovery ([8]; surfactant 10 mM): 192%
